Data taken from patent EP0946548B1, “NOVEL HETEROCYCLIC SUBSTITUTED PYRROLIDINE AMIDE DERIVATIVES” (Aventis Pharmaceuticals Inc., priority 1996, dated 1998).
Counter-ions that a name gives are not always drawn.

Key:
[1] = target: T1, NK1 receptor (Cavia porcellus, UniProt P30547); assay: Antagonism of iodinated tachykinin binding to NK1 receptor (125I-Bolton Hunter Lys-3 labeled substance P); details: guinea pig lung membranes; mean of several experiments
T1 construct: evaluated in guinea pig lungs (Keystone Biologicals, Cleveland, OH); tissue Keystone Biologicals, Cleveland, OH; host or cells: guinea pig lung membranes
Procedure: (§1) One skilled in the art can determine the NK1 receptor and NK2 receptor affinity in vitro as follows. The NK1 receptor affinity of tachykinin antagonists is evaluated in guinea pig lungs (Keystone Biologicals, Cleveland, OH) and affinity for the NK2 receptor is evaluated in HSKR-1 cells (which are mouse 3T3 fibroblasts expressing the human jejunal NK2 receptor). Tissues or cells are homogenized with a Polytron in 15 volumes of 50 mM Tris-HCl buffer (pH 7.4, 4°C) and centrifuged. The pellet is resuspended in Tris-HCl buffer and is centrifuged; the pellet is washed twice by resuspension. The final pellet is resuspended at a concentration of 40 mg/ml for tissues and 20 mg/ml for cells in incubation buffer and remains at room temperature for at least 15 min prior to use. Receptor binding is initiated by addition of 250 ul membrane preparation in duplicate to 0.1 nM of the following radioligands: ^125I-Bolton Hunter Lys-3 labeled substance P and ^125iodohistidyl-1-neurokinin A; in a final volume of 500 ul of buffer containing 50 mM Tris-HCl (pH 7.4 at room temperature), 0.1% bovine serum albumin, 2 mM mangenese chloride, 40 ug/ml bacitracin, 4 µg/ml leupeptin and chymostatin, 10 µM thiorphan and various doses of the putative tachykinin antagonists. […] Filter bound radioactivity is quantitated in a gamma counter. Nonspecific binding is defined as binding in the presence of 1 µM substance P or neurokinin A. Specific binding is calculated by subtracting nonspecific binding from total binding. Competition of iodinated SP or NKA binding by test compounds or standards is expressed as a percentage of this maximum binding. […]
(§2) Tachykinin receptor binding (IC50 values) for representative compounds of the present invention are found in Table 1. Specifically, NK1 and NK2 receptor binding values were determined by the method of present Example A. These values represent the mean of several experiments. […]

[2] = Metabolic stability: disappearance of test compound in guinea pig liver S9 supernatant; assay type: in vitro ADME; details: initial concentration 10µM, 37°C
Procedure: (§3) One skilled in the art can determine the metabolic stability for the compounds of the present invention by determining the rate of disappearance of the test comopund in vitro in liver extracts. Metabolic stability is inversely related to the rate of metabolism which can be evaluated by determining the rate of disappearance of the test compounds during the initial linear phase of this assay.
(§4) This method is carried out using either S9 or S10 liver supernatant obtained from either guinea pig or human liver. Guinea pig liver S9 can be purchased from Vitro Technologies, Baltimore, Md and human liver S9 can be purchased from IIAM, Eaton Pa. Both guinea pig and human S10 supernatant can be prepared as follows: Combine weighed liver (fresh or stored at -80°C until use) and 1.15% aqueous potassium chloride solution (10-15 mL) and homogenize using a PCU Poltron from Kinematics of Switzerland or equivalent. Combine the homogenate with 1.15% aqueous potassium chloride solution, sufficient so that 3 mL of solution (total) is used per […] of liver, and mix. Store the above homogenate on ice at all times prior to use and at -80°C for long term storage.
(§5) Prepare a stock solution of each test compound in methanol, such that 0.1 mL of the stock solution when spiked into 16 mL of incubation mixture yields an initial concentration of 10µM of the test compound. Using this method the methanol content of the final incubation mixture will not exceed 1%.
(§6) Prepare the incubation mixture by combining in an incubation beaker S9 or S10 supernatant (4 mL); an aqueous solution containing 1.1 mM NADP, […] (4 units/2 mL)(0.32 mL); and an aqueous 0.1 M dipotassium monohydrogen phosphate solution (7.58 mL). Incubate the test compound by adding 0.1 mL of the stock solution of test compound to an incubation mixture, placed in a shaking water bath at 37°C.
(§7) To determine the rate of disappearance of test compounds in this assay, remove triplicate aliquots (0.5 mL) from the incubation beaker at 1, 3, 5, 10, 15, 30, and 60 minutes. Freeze all aliquots in a hexane/dry-ice slurry to instantly deactivate the enzymes. Store at -70°C until assayed. The concentration of test compound in each aliquot is determined by HPLC after preparation and as compared to a standard concentration of test compound, such preparations and determinations are well known and appreciated in the art. The rate of disappearance can be determined from the slope of the initial linear phase of this assay by graphing the change in concentration of test compound vs. time.
(§8) Calibration standards for Compound A were prepared as follows: dissolve 10 mg of Compound A (free base) in methanol (10 mL) to give a 1 mg/mL stock solution. Use acetonitrile to dilute 1 mL of stock solution to 10 mL to give a 100 µg/mL spiking standard and serially dilute the 100µg/mL solution with acetonitrile to give spiking standards having concentrations of 50, 25, 10, 5, 2.5, and 1.0 µg/mL. Calibration standards having concentrations of 10,000; 5,000; 2,500; 1,000; 500; 250; and 100 ng/mL are prepared in duplicated by adding 20 µL of each spiking standards to 0.2 mL of control S9 supernatant. Blanks and samples each receive 20µL of acetonitrile. Calibration standards and aliquots from that assay of compound A were prepared and evaluated as follows: charge a purple sulfonic acid solid phase extraction cartridge (Varian Inc., Harbor City, Ca.) with methanol (1 mL) and an aqueous 0.5% monochloroacetic acid solution (1 mL). Dilute the 0.2 mL of calibration standard or aliquot from the incubation with aqueous 5% acetonitrile (0.5 mL) and add to the charged cartridge. Pull the sample through the cartridge using vacuum, rinse with aqueous 0.5% monochloroacetic acid solution (1 mL), aqueous 50% acetonitrile solution (50 mM potassium hydroxide) (1 mL). Elute into HPLC vial using 60% methanol, 38% water, 1% acetic acid, 1% triethylamine (0.4 mL). […]

[3] = target: T2, human jejunal NK2 receptor (Homo sapiens, UniProt P21452); assay: Antagonism of iodinated tachykinin binding to NK2 receptor (125iodohistidyl-1-neurokinin A) in HSKR-1 cells; details: HSKR-1 cells (mouse 3T3 fibroblasts expressing the human jejunal NK2 receptor); mean of several experiments
T2 construct: expressed in transfected cells; host or cells: HSKR-1 cells (mouse 3T3 fibroblasts)
T2 sequence (P21452 1-398): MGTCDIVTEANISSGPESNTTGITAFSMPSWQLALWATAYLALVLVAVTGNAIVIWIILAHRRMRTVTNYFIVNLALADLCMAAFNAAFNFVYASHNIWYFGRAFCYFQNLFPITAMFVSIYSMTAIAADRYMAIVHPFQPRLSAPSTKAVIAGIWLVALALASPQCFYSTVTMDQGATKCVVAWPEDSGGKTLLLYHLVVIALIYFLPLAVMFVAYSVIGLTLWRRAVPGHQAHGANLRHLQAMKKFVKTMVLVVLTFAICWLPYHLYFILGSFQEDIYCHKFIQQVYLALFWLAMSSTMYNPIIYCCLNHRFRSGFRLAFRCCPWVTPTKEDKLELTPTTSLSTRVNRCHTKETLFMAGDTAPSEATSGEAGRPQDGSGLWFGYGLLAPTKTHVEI
Procedure: as §1, §2

[4] = Metabolic stability: disappearance of test compound in human liver S9 supernatant; assay type: in vitro ADME; details: initial concentration 10µM, 37°C
Procedure: as §3, §4, §5, §6, §7, §8

T1 sequence (P30547 whole entry): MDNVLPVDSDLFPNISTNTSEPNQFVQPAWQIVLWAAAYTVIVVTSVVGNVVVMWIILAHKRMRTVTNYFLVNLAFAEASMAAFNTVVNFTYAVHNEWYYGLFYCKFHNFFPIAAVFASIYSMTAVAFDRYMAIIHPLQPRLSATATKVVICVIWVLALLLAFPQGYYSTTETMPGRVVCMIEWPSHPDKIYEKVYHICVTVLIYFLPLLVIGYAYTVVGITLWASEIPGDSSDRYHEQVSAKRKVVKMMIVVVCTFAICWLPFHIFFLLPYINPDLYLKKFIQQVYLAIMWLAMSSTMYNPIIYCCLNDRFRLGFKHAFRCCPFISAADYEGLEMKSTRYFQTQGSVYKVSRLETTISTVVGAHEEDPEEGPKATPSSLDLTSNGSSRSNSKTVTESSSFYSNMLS

Compound	IC50 [1] [nM]	Metabolic Stability in Guinea Pig Liver S9, concentration ([2]; Time 1 min) [µg/mL]	Metabolic Stability in Guinea Pig Liver S9, concentration ([2]; Time 3 min) [µg/mL]	Metabolic Stability in Guinea Pig Liver S9, concentration ([2]; Time 5 min) [µg/mL]	Metabolic Stability in Guinea Pig Liver S9, concentration ([2]; Time 10 min) [µg/mL]	Metabolic Stability in Guinea Pig Liver S9, concentration ([2]; Time 15 min) [µg/mL]	Metabolic Stability in Guinea Pig Liver S9, concentration ([2]; Time 30 min) [µg/mL]	Metabolic Stability in Guinea Pig Liver S9, concentration ([2]; Time 60 min) [µg/mL]	IC50 [3] [nM]	Metabolic Stability in Human Liver S9, concentration ([4]; Time 1 min) [µg/mL]	Metabolic Stability in Human Liver S9, concentration ([4]; Time 3 min) [µg/mL]	Metabolic Stability in Human Liver S9, concentration ([4]; Time 5 min) [µg/mL]	Metabolic Stability in Human Liver S9, concentration ([4]; Time 10 min) [µg/mL]	Metabolic Stability in Human Liver S9, concentration ([4]; Time 15 min) [µg/mL]	Metabolic Stability in Human Liver S9, concentration ([4]; Time 30 min) [µg/mL]	Metabolic Stability in Human Liver S9, concentration ([4]; Time 60 min) [µg/mL]
COc1cc(C(=O)N2CCC(CCN3CCC(C(N)=O)(c4ccccc4)CC3)(c3ccc(Cl)c(Cl)c3)C2)cc(OC)c1OC.Cl (single isomer, unassigned; (+)) [Compound C, (+)-1-(2-(3-(3,4-dichloro-phenyl)-1-(3,4,5-trimethoxy-benzoyl)-pyrrolidin-3-yl)-ethyl)-4-phenyl-piperidine-4-carboxylic acid amide hydrochloride, reference compound]	3.04	6.3	6.0	5.3	4.8	4.0	3.8	3.5	8.17	6.2	5.6	5.9	5.2	4.5	3.2	2.5
COc1ccc(-n2cnnn2)cc1C(=O)N1CC[C@](CCN2CCC(C(N)=O)(c3ccccc3)CC2)(c2ccc(Cl)c(Cl)c2)C1 [Compound A, (R)-1-(2-methoxy-5-(1H-tetrazol-1-yl)benzoyl)-3-(2-(4-phenyl-4-carboxamidopiperidin-1-yl)ethyl)-3-(3,4-dichlorophenyl)pyrrolidine hydrochloric acid salt]	2.79	6.1	6.6	6.3	6.1	6.1	6.3	6.9	16.3	6.6	6.5	6.6	6.7	6.6	6.8	6.9
COc1ccc(-n2cnnn2)cc1C(=O)N1CC[C@](CCN2CCC(C(N)=O)(c3cccnc3)CC2)(c2ccc(Cl)c(Cl)c2)C1 [Compound B, (R)-1-(2-methoxy-5-(1H-tetrazol-1-yl)benzoyl)-3-(2-(4-(pyrid-3-yl)-4-carboxamidopiperidin-1-yl)ethyl)-3-(3,4-dichlorophenyl)pyrrolidine hydrochloric acid salt]	3.15	6.2	6.4	6.4	6.3	6.3	6.3	6.2	232	6.4	6.6	6.1	6.1	5.7	5.3	4.4
